# According to PMC12325182, “Discovery of novel and potent celastrol derivatives as PRDX1 inhibitors for cancer therapy through structure-based virtual screening” (Frontiers in Pharmacology, 2025):
# How the values were obtained:
# PRDX1 = molecular target: T1, PRDX1 (Homo sapiens, UniProt Q06830); test: MST assay; format: binding; conditions: MST; mean ± SD, n = 3; read-out: PRDX1 (Kd)
# T1 sequence (Q06830 1-199): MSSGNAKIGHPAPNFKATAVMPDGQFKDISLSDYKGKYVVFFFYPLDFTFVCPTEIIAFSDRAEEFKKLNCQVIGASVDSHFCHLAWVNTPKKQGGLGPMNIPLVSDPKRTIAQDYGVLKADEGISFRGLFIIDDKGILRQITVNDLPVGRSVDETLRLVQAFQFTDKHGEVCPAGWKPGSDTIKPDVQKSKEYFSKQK
# Method: The MST assays were carried out in a buffer composed of 50 mM Tris, 200 mM NaCl, and 0.1% (v/v) TWEEN20. PRDX1 was tagged with the MO-L011 protein labeling kit (RED-NHS second Generation). The diluted compounds were combined with the tagged PRDX1 protein and allowed to stand at room temperature for 5 minutes. Subsequently, the reaction mixture was loaded into capillaries, and measurements were taken using a Monolith NT.115 instrument.
# [1] = test system: HaCaT (immortalised keratinocytes); test: MTT assay; format: cell-based; conditions: Homo sapiens, 72 h, normal cells, mean ± SD, n = 3
# Method: (§1) Cells were seeded in 96-well plates at 5 ×10^4 cells/well and cultured overnight at 37°C under 5% CO2. After medium removal, cells were treated with serially diluted compounds (0.04–163.84 μM) or vehicle control (0.1% DMSO) and incubated for 72 h. Subsequently, 20 μL of MTT solution (5 mg/mL) was added to each well, and incubation was continued for 4 h. Add 150 μL of DMSO and shake for 10 min to fully dissolve the crystal. Finally, the absorbance was measured at 570 nm using a microplate reader. Cell viability was calculated as (ODcompound - ODblank)/(ODvehicle - ODblank) × 100%. The half inhibitory concentration (IC50) was calculated from the dose-response curve using Prism 8.0 software. Three independent replicate experiments were performed.
# [2] = test system: HepG2 (hepatocellular carcinoma cells); test: MTT assay; format: cell-based; conditions: Homo sapiens, HepG2; MTT, 72 h; mean ± SD, n = 3; read-out: IC50 (μM) HepG2
# Method: as §1
# BMX = molecular target: T2, BMX (Homo sapiens, UniProt P51813); test: Kinase selectivity assay; format: biochemical; conditions: target BMX; read-out: CP1 IC50
# T2 construct: ICE Biosciences (Beijing, China), ran the assays
# Method: (§2) The selectivity of CP1 for PRDX1 was evaluated through kinase selectivity assays against other PRDX family members and a panel of kinases. The experiments were conducted by ICE Biosciences (Beijing, China).
# CSF1R = molecular target: T3, CSF1R (Homo sapiens, UniProt P07333); test: Kinase selectivity assay; format: biochemical; conditions: target CSF1R; read-out: CP1 IC50
# T3 construct: ICE Biosciences (Beijing, China), ran the assays
# Method: as §2
# CSK = molecular target: T4, CSK (Homo sapiens, UniProt P41240); test: Kinase selectivity assay; format: biochemical; conditions: target CSK; read-out: CP1 IC50
# T4 construct: ICE Biosciences (Beijing, China), ran the assays
# Method: as §2
# DDR2 = molecular target: T5, DDR2 (Homo sapiens, UniProt Q16832); test: Kinase selectivity assay; format: biochemical
# T5 construct: ICE Biosciences (Beijing, China), ran the assays
# Method: as §2
# EPHA2 = molecular target: T6, EPHA2 (Homo sapiens, UniProt P29317); test: Kinase selectivity assay; format: biochemical; conditions: target EPHA2; read-out: CP1 IC50
# T6 construct: ICE Biosciences (Beijing, China), ran the assays
# Method: as §2
# EPHA8 = EPHA8 (Homo sapiens, UniProt P29322); test: Kinase selectivity assay; format: biochemical; conditions: target EPHA8; read-out: CP1 IC50
# Method: as §2
# EPHB1 = EPHB1 (Homo sapiens, UniProt P54762); test: Kinase selectivity assay; format: biochemical
# Method: as §2
# EPHB2 = EPHB2 (Homo sapiens, UniProt P29323); test: Kinase selectivity assay; format: biochemical; conditions: target EPHB2; read-out: CP1 IC50
# Method: as §2
# EPHB3 = EPHB3 (Homo sapiens, UniProt P54753); test: Kinase selectivity assay; format: biochemical; conditions: target EPHB3; read-out: CP1 IC50
# Method: as §2
# FLT3 = molecular target: T7, FLT3 (Homo sapiens, UniProt P36888); test: Kinase selectivity assay; format: biochemical; conditions: target FLT3; read-out: CP1 IC50
# T7 construct: assay run by ICE Biosciences (Beijing, China)
# Method: as §2
# FLT4 = molecular target: T8, FLT4 (Homo sapiens, UniProt P35916); test: Kinase selectivity assay; format: biochemical; conditions: target FLT4; read-out: CP1 IC50
# T8 construct: assay run by ICE Biosciences (Beijing, China)
# Method: as §2
# INSRR = INSRR (Homo sapiens, UniProt P14616); test: Kinase selectivity assay; format: biochemical; conditions: target INSRR; read-out: CP1 IC50
# Method: as §2
# KDR = KDR (Homo sapiens, UniProt P35968); test: Kinase selectivity assay; format: biochemical; conditions: target KDR; read-out: CP1 IC50
# Method: as §2
# LCK = LCK (Homo sapiens, UniProt P06239); test: Kinase selectivity assay; format: biochemical; conditions: target LCK; read-out: CP1 IC50
# Method: as §2
# LYN = LYN (Homo sapiens, UniProt P07948); test: Kinase selectivity assay; format: biochemical; conditions: target LYN; read-out: CP1 IC50
# Method: as §2
# NTRK1 = NTRK1 (Homo sapiens, UniProt P04629); test: Kinase selectivity assay; format: biochemical
# Method: as §2
# PRDX4 = molecular target: T9, PRDX4 (Homo sapiens, UniProt Q13162); test: Kinase selectivity assay; format: biochemical; conditions: target PRDX4; read-out: CP1 IC50
# T9 construct: ICE Biosciences (Beijing, China), ran the assays
# Method: as §2
# PRDX5 = molecular target: T10, PRDX5 (Homo sapiens, UniProt P30044); test: Kinase selectivity assay; format: biochemical; conditions: target PRDX5; read-out: CP1 IC50
# T10 construct: ICE Biosciences (Beijing, China), ran the assays
# Method: as §2
# PRDX6 = molecular target: T11, PRDX6 (Homo sapiens, UniProt P30041); test: Kinase selectivity assay; format: biochemical
# T11 construct: ICE Biosciences (Beijing, China), ran the assays
# Method: as §2
# PTK2 = molecular target: T12, PTK2 (Homo sapiens, UniProt Q05397); test: Kinase selectivity assay; format: biochemical; conditions: target PTK2; read-out: CP1 IC50
# T12 construct: assay run by ICE Biosciences (Beijing, China)
# Method: as §2
# SRC = molecular target: T13, SRC (Homo sapiens, UniProt P12931); test: Kinase selectivity assay; format: biochemical; conditions: target SRC; read-out: CP1 IC50
# T13 construct: assay run by ICE Biosciences (Beijing, China)
# Method: as §2
# TEC = molecular target: T14, TEC (Homo sapiens, UniProt P42680); test: Kinase selectivity assay; format: biochemical; conditions: target TEC; read-out: CP1 IC50
# T14 construct: assay run by ICE Biosciences (Beijing, China)
# Method: as §2
# TXK = molecular target: T15, TXK (Homo sapiens, UniProt P42681); test: Kinase selectivity assay; format: biochemical; conditions: target TXK; read-out: CP1 IC50
# T15 construct: ICE Biosciences (Beijing, China), a contract laboratory that ran the assay
# Method: as §2
# T8 sequence (P35916 25-1363): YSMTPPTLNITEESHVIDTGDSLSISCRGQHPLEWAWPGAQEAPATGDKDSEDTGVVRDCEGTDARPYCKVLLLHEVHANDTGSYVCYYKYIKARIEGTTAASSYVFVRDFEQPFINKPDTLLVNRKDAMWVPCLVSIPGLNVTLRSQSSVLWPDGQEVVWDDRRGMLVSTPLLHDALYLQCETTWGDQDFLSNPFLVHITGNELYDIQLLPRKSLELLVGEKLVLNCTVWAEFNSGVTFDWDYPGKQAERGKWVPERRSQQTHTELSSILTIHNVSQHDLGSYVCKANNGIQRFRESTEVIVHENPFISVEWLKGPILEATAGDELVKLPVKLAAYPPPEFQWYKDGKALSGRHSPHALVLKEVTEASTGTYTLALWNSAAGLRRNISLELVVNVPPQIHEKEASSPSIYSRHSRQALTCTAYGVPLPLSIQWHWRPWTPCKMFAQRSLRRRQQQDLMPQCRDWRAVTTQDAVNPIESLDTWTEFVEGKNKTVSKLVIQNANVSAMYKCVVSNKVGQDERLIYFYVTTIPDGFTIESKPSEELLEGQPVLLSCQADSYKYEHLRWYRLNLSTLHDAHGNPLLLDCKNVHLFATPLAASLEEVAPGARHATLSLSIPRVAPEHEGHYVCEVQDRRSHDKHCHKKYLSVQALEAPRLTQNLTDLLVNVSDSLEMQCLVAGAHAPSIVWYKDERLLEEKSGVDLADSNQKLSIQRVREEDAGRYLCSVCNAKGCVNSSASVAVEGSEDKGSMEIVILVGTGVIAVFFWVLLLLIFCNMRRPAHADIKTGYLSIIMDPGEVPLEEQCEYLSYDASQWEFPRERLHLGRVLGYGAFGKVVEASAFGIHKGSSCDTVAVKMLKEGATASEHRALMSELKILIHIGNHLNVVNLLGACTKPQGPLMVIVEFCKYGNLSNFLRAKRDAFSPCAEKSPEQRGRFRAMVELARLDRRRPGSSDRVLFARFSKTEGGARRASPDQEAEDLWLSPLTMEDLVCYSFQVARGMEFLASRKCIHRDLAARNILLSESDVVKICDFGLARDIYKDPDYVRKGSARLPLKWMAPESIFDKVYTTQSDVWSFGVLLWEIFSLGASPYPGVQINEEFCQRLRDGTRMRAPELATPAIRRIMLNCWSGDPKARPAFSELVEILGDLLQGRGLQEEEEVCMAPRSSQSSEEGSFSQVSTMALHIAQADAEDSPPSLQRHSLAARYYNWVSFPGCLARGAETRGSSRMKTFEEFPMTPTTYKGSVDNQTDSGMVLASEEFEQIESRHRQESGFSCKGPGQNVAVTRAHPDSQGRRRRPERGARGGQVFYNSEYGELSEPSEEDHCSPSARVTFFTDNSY
# T4 sequence (P41240 whole entry): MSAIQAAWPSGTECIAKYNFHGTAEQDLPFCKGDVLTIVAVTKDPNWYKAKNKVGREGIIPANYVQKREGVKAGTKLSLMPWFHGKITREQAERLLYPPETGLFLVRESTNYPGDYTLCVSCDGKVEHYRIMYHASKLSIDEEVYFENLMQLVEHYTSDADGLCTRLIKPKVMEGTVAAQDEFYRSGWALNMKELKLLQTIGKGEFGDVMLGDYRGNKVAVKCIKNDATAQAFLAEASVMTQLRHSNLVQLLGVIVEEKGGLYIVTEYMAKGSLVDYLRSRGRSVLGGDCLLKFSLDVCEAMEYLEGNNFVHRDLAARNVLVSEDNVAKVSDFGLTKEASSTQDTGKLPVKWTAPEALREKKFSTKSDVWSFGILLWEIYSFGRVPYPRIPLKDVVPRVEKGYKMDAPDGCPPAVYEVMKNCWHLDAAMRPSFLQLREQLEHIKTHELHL
# T9 sequence (Q13162 38-271): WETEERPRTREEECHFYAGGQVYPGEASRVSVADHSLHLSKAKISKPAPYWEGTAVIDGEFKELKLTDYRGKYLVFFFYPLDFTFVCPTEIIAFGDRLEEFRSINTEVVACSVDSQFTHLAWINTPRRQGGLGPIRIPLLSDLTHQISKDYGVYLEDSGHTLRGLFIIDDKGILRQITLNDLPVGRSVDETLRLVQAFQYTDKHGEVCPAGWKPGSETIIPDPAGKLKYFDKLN
# Sequence of EPHA8 (P29322 28-1005): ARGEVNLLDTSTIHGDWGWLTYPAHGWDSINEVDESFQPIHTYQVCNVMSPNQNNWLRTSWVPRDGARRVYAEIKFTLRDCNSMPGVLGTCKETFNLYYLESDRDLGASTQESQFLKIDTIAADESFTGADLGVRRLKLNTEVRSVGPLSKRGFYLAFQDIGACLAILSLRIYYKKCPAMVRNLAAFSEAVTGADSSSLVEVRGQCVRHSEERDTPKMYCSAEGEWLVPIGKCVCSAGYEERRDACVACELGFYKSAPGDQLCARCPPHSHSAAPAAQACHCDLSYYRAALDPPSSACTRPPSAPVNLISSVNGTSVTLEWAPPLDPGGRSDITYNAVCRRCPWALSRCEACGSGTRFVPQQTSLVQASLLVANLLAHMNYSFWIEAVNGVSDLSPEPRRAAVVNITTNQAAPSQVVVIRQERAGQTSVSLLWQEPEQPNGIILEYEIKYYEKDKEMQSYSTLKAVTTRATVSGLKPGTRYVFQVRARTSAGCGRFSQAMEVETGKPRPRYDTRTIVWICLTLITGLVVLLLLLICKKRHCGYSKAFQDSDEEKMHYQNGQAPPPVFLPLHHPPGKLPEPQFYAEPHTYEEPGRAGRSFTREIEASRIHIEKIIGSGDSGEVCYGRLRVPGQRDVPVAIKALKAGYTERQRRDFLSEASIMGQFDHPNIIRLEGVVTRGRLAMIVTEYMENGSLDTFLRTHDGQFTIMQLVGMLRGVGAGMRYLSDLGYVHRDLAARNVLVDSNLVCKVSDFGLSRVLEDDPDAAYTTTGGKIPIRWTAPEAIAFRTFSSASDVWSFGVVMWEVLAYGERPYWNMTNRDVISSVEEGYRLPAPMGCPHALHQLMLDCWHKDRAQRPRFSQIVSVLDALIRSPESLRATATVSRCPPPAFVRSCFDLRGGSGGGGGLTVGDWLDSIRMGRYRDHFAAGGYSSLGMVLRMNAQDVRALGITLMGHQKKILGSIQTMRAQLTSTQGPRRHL
# Sequence of EPHB3 (P54753 34-998): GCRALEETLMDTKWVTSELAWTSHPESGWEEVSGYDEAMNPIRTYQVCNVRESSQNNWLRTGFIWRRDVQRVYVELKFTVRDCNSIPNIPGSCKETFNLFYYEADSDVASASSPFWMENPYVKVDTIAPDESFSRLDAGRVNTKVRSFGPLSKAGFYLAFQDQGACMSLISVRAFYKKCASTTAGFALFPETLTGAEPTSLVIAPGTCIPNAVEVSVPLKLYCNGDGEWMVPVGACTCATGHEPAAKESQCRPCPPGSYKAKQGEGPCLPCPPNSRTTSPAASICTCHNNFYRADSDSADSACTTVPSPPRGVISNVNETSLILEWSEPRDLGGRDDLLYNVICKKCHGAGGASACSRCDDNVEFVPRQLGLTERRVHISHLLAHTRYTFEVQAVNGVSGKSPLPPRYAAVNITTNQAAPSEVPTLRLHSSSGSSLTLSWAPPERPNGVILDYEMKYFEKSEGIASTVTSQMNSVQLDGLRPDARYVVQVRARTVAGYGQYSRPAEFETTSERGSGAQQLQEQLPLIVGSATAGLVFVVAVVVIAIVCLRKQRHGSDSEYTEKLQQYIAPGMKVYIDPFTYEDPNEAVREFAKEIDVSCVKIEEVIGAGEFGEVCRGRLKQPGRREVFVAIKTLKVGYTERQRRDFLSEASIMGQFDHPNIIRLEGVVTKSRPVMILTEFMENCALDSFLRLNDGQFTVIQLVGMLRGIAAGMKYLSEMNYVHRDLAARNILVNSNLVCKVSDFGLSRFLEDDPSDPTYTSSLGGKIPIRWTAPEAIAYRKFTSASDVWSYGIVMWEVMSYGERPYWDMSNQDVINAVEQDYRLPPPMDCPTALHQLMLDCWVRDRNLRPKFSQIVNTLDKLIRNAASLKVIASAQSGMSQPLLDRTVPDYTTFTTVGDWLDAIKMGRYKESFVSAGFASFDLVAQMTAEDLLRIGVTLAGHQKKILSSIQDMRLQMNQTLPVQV
# T2 sequence (P51813 whole entry): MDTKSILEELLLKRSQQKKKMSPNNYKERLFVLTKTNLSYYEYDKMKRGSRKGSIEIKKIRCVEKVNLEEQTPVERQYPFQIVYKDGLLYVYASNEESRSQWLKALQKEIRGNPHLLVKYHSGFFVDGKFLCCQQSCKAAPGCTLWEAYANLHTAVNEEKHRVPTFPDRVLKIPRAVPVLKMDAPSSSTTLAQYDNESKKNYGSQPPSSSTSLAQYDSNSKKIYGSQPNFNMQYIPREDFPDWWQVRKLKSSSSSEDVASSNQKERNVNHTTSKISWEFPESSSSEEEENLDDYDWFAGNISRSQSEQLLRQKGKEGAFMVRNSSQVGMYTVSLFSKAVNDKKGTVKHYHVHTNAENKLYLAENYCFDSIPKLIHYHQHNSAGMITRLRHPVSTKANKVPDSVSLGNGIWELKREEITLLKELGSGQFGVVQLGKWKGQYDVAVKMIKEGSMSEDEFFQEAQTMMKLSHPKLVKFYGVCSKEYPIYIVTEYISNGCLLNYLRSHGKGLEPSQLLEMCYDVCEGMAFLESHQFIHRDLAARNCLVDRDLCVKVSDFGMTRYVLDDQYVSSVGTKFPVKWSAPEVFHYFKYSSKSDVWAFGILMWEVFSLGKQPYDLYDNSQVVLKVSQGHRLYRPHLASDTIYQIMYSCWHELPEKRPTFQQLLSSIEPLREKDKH
# T10 sequence (P30044 53-214): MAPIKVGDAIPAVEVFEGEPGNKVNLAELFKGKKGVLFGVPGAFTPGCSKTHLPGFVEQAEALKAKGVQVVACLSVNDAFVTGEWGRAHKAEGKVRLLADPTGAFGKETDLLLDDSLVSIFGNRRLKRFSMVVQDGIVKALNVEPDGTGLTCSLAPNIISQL
# T11 sequence (P30041 whole entry): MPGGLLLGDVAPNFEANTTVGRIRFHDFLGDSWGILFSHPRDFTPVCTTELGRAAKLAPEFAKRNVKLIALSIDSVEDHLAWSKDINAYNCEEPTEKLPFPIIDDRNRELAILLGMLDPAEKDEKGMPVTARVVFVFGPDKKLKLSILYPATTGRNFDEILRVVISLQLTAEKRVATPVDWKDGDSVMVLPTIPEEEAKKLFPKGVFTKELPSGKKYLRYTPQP
compound,measurement,setting,value
CC1=C(CC(=O)/C=C/c2cccc(CO)c2)C(=O)C=C2C1=CC=C1[C@@]2(C)CC[C@@]2(C)C3C[C@](C)(C(=O)CCc4nc(C(O)C(O)O)c(C)nc4C)CC[C@]3(C)CC[C@]12C (some centres unmarked) [CP1],Kd,PRDX1,0.06 ± 0.001 nM
same,IC50,[1],> 100 µM
same,IC50,[2],0.25 ± 0.02 µM
same,IC50,BMX,> 30 µM
same,IC50,CSF1R,> 30 µM
same,IC50,CSK,> 30 µM
same,IC50,DDR2,> 30 µM
same,IC50,EPHA2,> 30 µM
same,IC50,EPHA8,> 30 µM
same,IC50,EPHB1,> 30 µM
same,IC50,EPHB2,> 30 µM
same,IC50,EPHB3,> 30 µM
same,IC50,FLT3,> 30 µM
same,IC50,FLT4,> 30 µM
same,IC50,INSRR,> 30 µM
same,IC50,KDR,> 30 µM
same,IC50,LCK,> 30 µM
same,IC50,LYN,> 30 µM
same,IC50,NTRK1,> 30 µM
same,IC50,PRDX4,> 30 µM
same,IC50,PRDX5,> 30 µM
same,IC50,PRDX6,> 30 µM
same,IC50,PTK2,> 30 µM
same,IC50,SRC,> 30 µM
same,IC50,TEC,> 30 µM
same,IC50,TXK,> 30 µM
